The values below come from patent publication US7141589B2, “Methods of inhibiting formation of vascular channels and methods of inhibiting proliferation” (The United States of America as represented by the …, priority 2001, dated 2006).

The term IC50 denotes the concentration needed to halve the response being measured.

Values joined by “and” are separate entries in the source; they are usually repeats but may differ in a detail not shown here. Equal values may be shown once. Read-outs that look alike come from different tables or passages of the source. Bounds are passed on as bounds.

Test [1] has as its target T1, deoxyhypusine hydroxylase (Homo sapiens, UniProt Q9BU89).
T1 construct: endogenous in cells; host or cells: HUVEC
T1 sequence (Q9BU89 1-302): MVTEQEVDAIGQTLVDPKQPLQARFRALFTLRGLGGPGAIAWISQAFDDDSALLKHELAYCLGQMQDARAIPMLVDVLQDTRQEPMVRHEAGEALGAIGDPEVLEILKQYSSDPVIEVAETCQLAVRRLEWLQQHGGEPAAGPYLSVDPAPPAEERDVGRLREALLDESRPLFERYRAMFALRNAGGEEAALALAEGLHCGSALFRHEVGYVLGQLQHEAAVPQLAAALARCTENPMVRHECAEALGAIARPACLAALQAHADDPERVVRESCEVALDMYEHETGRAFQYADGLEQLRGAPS
Nature of the test: Inhibition of deoxyhypusine hydroxylation in HUVEC ([3H]spermidine labeling). Format: cell-based. To be noted: for IC50: [3H]spermidine, 18-20 h. The method, then:
(§1) Exponentially growing HUVEC (5×10^5 cells per 60-mm dish) were incubated with 5 μCi/ml of [1,8-^3H]spermidine for 18 h in the presence or absence of the indicated concentrations of inhibitors. The cells were washed with PBS and harvested by centrifugation at 300×g for 5 minutes. Cellular proteins were precipitated with 10% trichloroacetic acid containing 1 mM each of unlabeled spermidine, spermine and putrescine, and the precipitates were washed three times to remove radiolabeled free polyamines. The washed precipitates were hydrolyzed in 6 N HCl for 18 h at 115° C. Radiolabeled hypusine and deoxyhypusine released by acid hydrolysis were separated by ion exchange chromatography using an automated Dionex D-400 amino acid analyzer (Park et al., (1982), supra). The radioactivity in the hypusine and the deoxyhypusine fractions was measured using a Beckman liquid scintillation spectrometer.

Test [2] concerns HUVEC. Nature of the test: Inhibition of DNA synthesis in HUVEC ([3H]thymidine incorporation). Format: cell-based. The settings on record: Homo sapiens, read-out: IC50 for inhibition of DNA synthesis. As to the method: The test compounds were added at the indicated concentrations to exponentially growing HUVEC in 24-well plates (1×10^5 cells/well). […] DNA was precipitated with 5% trichloroacetic acid, washed once with 5% trichloroacetic acid, and dissolved in 0.2 ml of 0.2 N NaOH for measurement of radioactivity.

For test [3], the system named is HUVEC. Nature of the test: Cell cycle analysis of HUVEC by flow cytometry. It counts as cell-based, human. To be noted: for concentration that gave close to the maximum accumulation (>70%) of HUVEC in G1: 24 h of treatment. The method, then:
(§2) Exponentially growing HUVEC were treated with the test compounds for 24 or 48 h, and processed for cell cycle analysis. After harvesting cells by trypsin treatment, isolation and staining of cell nuclei were performed using a CycleTEST™ PLUS DNA Reagent Kit (Becton & Dickinson, Rutherford, N.J.), according to the procedure recommended by the manufacturer. Briefly, nuclei were released from cells by treatment with a nonionic detergent and trypsin. The nuclear chromatin was stabilized with spermine. Propidium iodide was used to stain the DNA. Fluorescence histograms were generated with a FACSCalibur cytometer (Becton & Dickinson, Rutherford, N.J.), using CELLQuest software.

In test [4] the test system is HUVEC. The test is described as follows: Tube formation on Matrigel by HUVEC. It counts as cell-based, human. The settings on record: 18 h; for concentration at which disruption of tube formation was manifest: HUVEC on Matrigel. As to the method:
The formation of tubes on Matrigel by HUVEC was assessed as described (Kubota et al., J. Cell. Biol. 107(4): 1589–1598 (1988) and Ponce, In Vitro Matrigel Angiogenesis Assays. Totowa, N.J.: Humana Press Inc., 2000) with minor modifications as follows. Matrigel, 0.3 ml, was added to each well of a 24-well plate. After the Matrigel had gelled, HUVEC (5×10^4 cells), trypsinized from an exponentially growing culture, were added to each well in 0.2 ml of supplemented EBM-2. Test compounds were added in duplicate for each concentration and incubated at 37° C., 5% CO2, for 18 h. The medium was aspirated the next day, and the cells were fixed and stained with Diff-Quick Fix and staining solution II (Baxter Scientific Products, McGaw, Ill.).

The test system of another test is prolyl 4-hydroxylase. Nature of the test: Inhibition of collagen proline 4-hydroxylation in HUVEC ([3H]proline labeling). It counts as cell-based, human. The method, then:
For the determination of collagen proline 4-hydroxylation, exponentially growing HUVEC were plated in 60-mm dishes. After cell attachment, ascorbic acid (50 μg/ml), β-aminopropionitrile (30 μg/ml), and the test compounds were added along with [^3H]proline (20 μCi/ml). After an 18-h incubation, labeled proteins (including collagen) released into the medium were precipitated with 10% trichloroacetic acid. After washing three times with 5% trichloroacetic acid solution, the precipitated proteins were hydrolyzed in 6N HCl at 115° C. for 24 h. Unlabeled hydroxyproline was added to each sample. Radioactive proline and hydroxyproline were separated by thin layer chromatography on silica gel-coated glass plates in 75% phenol (phenol:water, 75:25 w/w) containing 0.2 mg/ml NaCN (Brenner et al., Dünnschict-Chromatographie von Aminosäuren. Experientia 16: 378–383 (1960). The positions of proline and hydroxyproline were visualized by the ninhydrin reaction. Hydroxyproline separated from proline with Rf values of 0.45 and 0.58, respectively. The silica gel in the hydroxyproline and proline areas was scraped off, eluted with 0.5 ml of water, and the radioactivity in each spot was counted. The degree of proline hydroxylation was estimated from the ratio of [^3H]hydroxyproline to the total radioactivity in [^3H]proline plus [^3H]hydroxyproline.

The test system of another test is chick aortic arch rings. Nature of the test: Chick aortic arch ring sprouting on Matrigel. As to the method:
The assay was carried out as described previously for rat aortic rings (Gho et al., 1999), supra) with a slight modification. Briefly, the aortic arches were dissected from 14-day-old chick embryos, cleaned free of unwanted tissue, and cut into 0.8 mm slices. Each ring was transferred into the center of a well of a 24-well plate to which 1.5 μl of Matrigel had just been added. Ten μl of ice-cold Matrigel were added immediately to embed the ring. When the Matrigel was solidified, 500 μl of supplemented EBM-2 were added to each well. After addition of the test compounds in sextuplicate for each concentration, the plates were incubated at 37° C. with 5% CO2, and the degree of sprouting was assessed by a blinded observer after 48 and 72 h.

The test system of test [5] is Siha cells. The test is described as follows: Inhibition of DNA synthesis in Siha cells. It counts as cell-based, human. The settings on record: log-phase Siha cells, 20 hours. The method, then:
The test compounds were added at the indicated concentrations to exponentially growing HUVEC in 24-well plates (1×10^5 cells/well). At 10 h, [^3H]thymidine (1 μCi/well) was added. After an additional 2-h incubation, the cells were washed twice with PBS. DNA was precipitated with 5% trichloroacetic acid, washed once with 5% trichloroacetic acid, and dissolved in 0.2 ml of 0.2 N NaOH for measurement of radioactivity.
(§3) Siha cells were incubated for 20 hours with increasing concentrations of ciclopirox and then metabolically labeled to determine the ability to inhibit DNA synthesis, as described in Example 4, and the ability to inhibit deoxyhypusine hydroxylation, as described in Example 2. Cell cycle arrest was assessed by flow cytometry, as described in Example 5.

In test [6] the target is T1, deoxyhypusine hydroxylase. The test is described as follows: Inhibition of deoxyhypusine hydroxylation in Siha cells. Format: cell-based. The settings on record: 30 μM, 20 hours. The method, then:
as §1, §3

Test [7] deals with Siha cells. The test is described as follows: Cell cycle arrest in Siha cells by flow cytometry. To be noted: 30 μm. It counts as cell-based, human. As to the method:
as §2, §3
In general terms: In flow cytometry, cells or beads pass a laser one at a time.

For `c1ccc(-c2ccccn2)nc1` [2,2′-dipyridyl], the half-inhibitory concentration (IC50) in test [1] was 26 µM; in the test on HUVEC [2] (18 h of treatment), 55 µM. For the same compound, in the test on HUVEC [3], the “concentration that gave close to the maximum accumulation (>70%) of HUVEC in G1” value worked out at 100 µM. Moreover, the “concentration at which disruption of tube formation was manifest” value with HUVEC [4] was determined as 100 µM.

On to `Cc1cc(C2CCCCC2)n(O)c(=O)c1` [ciclopirox], for which, in test [1] (20 h), the “concentration above which no [3H]hypusine was detectable (complete inhibition of deoxyhypusine hydroxylase)” value is over 10 µM and the “concentration at which only [3H]hypusine but no [3H]deoxyhypusine was detected (no inhibition)” value was at most 2.5 µM. In addition, in [1], the IC50 is ~5 µM and 5 µM. Moreover, the “inhibition of proline hydroxylation” value with prolyl 4-hydroxylase (10 μM) was 63%. In the test with HUVEC [2] (18 h, 18 h of treatment), the IC50 was about 10 µM. The “concentration that gave close to the maximum accumulation (>70%) of HUVEC in G1” value with HUVEC [3] was 30 µM. Also, the “concentration giving cell cycle arrest similar to that at 24 h with 30 μM” value in the test with HUVEC [3] (48 h treatment) was determined as 10 µM. Besides, the “concentration at which disruption of tube formation was manifest” value in the test on HUVEC [4] was in the range of 10 to 20 µM. For the same compound, the “relative inhibition of sprouting” value in the test with chick aortic arch rings (72 h) is “the most inhibitory”. Also, the “inhibition of DNA synthesis” value in the test with Siha cells [5] is given as “sharp, dose-dependent inhibition”. Moreover, the “suppression of deoxyhypusine hydroxylation” value in test [6] is on record as “totally suppressed”. Besides, the “cell cycle effect” value with Siha cells [7] is listed as “arrest in late G1”.

Regarding `Cc1c(O)c(=O)ccn1C` [deferiprone, 1,2-dimethyl-3-hydroxypyrid-4-one], the 50% inhibitory concentration (IC50) was 117 µM in [1] and 130 µM in the test on HUVEC [2] (18 h, 18 h of treatment). The “concentration that gave close to the maximum accumulation (>70%) of HUVEC in G1” value in the test with HUVEC [3] was 200 µM. For the same compound, the “inhibition of tube formation” value with HUVEC [4] (200 μM) was “Modest inhibition”. For the same compound, in the test with chick aortic arch rings (72 h of incubation), the “concentration showing a strong inhibition of sprouting” value turned out to be 400 µM.

`CC(=O)N(O)CCCCCNC(=O)CCC(=O)N(O)CCCCCNC(=O)CCC(=O)N(O)CCCCCN` [deferoxamine]: the concentration for half-maximal inhibition (IC50) in test [1] was 16 µM and ~16 µM; in the test on HUVEC [2] (18 h of treatment), 16 µM. For the same compound, in the test on prolyl 4-hydroxylase (100 μM), the “inhibition of proline hydroxylation” value is 40%. Besides, the “concentration that gave close to the maximum accumulation (>70%) of HUVEC in G1” value in the test on HUVEC [3] came out at 50 µM.

Regarding `NC(Cn1ccc(=O)c(O)c1)C(=O)O` (stereo not shown) [mimosine], the half-inhibitory concentration (IC50) in test [1] worked out at 191 µM; with HUVEC [2] (18 h), 455 µM. Moreover, in the test on prolyl 4-hydroxylase (400 μM), the “inhibition of proline hydroxylation” value was “only minor inhibition”. For the same compound, in the test with HUVEC [3] (400 μM, 24 h incubation), the “increase in G1” value is “did not cause a significant increase in G1”. Besides, in the test with HUVEC [4] (400 μM), the “impairment of tube formation” value was “little sign of impairment”. The “inhibition of sprout growth” value in the test with chick aortic arch rings (400 μM, 72 h) is listed as “moderate inhibition”.
